According to patent US7419657B2, “Treatment of atherosclerotic disorders” (priority 2001, dated 2008):
Several values for one entry are separate records, joined by “and”; a condition that tells them apart may be missing. Equal entries are not always repeated. Structures can show the parent of a compound that is named as a salt. Where two headings read alike, the source gives them in different places. Marks after values point to notes of the source that are not given here.

Key:
anti-Chlamydia abzymes [1] = assay: Abzyme activity in angina patients reporting aspirin intake (Example 10); type: in vivo, human; settings: for abzyme activity, + aspirin: individuals
anti-Chlamydia abzymes [2] = assay: Serum abzyme activity in patients taking aspirin (Example 6); type: in vivo, human
anti-Chlamydia abzymes [3] = type: biochemical, human; set-up: key to In-vitro Inhibition: + = inhibition; − = no inhibition
anti-Chlamydia abzymes [4] = assay: Anti-abzyme therapy trial in ischaemic heart disease: serum abzyme activity; type: in vivo, human
anti-Chlamydia IgG [5] = settings: best of previously undertaken trials with azithromycin; cited from earlier work
anti-Chlamydia IgG [6] = assay: Anti-abzyme therapy trial: anti-Chlamydia IgG; type: in vivo, human
[7] = Anti-abzyme therapy trial: modified Rose-Blackburn Questionnaire; type: in vivo, human; set-up: Score by modified Rose-Blackburn Questionnaire, 60 days after start of the treatment / Rose Blackthorn Score Day 60: scale not given here
From the text: The progression of the clinical condition of the patients was monitored by the use of the modified Bruce Protocol for treadmill exercise/stress ECG testing and on the Rose-Blackburn Questionnaire (Cardiovascular Survey Methods. WHO, Geneva, 1968).

anti-Chlamydia abzymes [8] = assay: Serum abzyme activity in stable angina patients treated with azithromycin with or without aspirin (Example 8); type: in vivo, human; settings: azithromycin 500 mg once per day
Chlamydia = type: biochemical, Chlamydia pneumoniae or Chlamydia Psittaci
lesion IgG = assay: LDL peroxidation by lesion IgG with tested antioxidants; type: biochemical, human; settings: LDL 480 μg of protein; +1% antioxidant; control 0.49 ± 0.023
human plasma = assay: In vitro kaolin clotting of plasma with atheroma IgG abzymes; settings: pH 6.2
[9] = patient F, Silent Myocardial Ischaemia
[10] = 10 μM of each Me2+-binding agent
[11] = 10 μM of each Me2+-binding agent, control 24.3
[12] = Therapy Group A individual IHD patients, azithromycin 500 mg daily
[13] = Therapy Group A mean, before treatment 47.5
[14] = individual IHD patients negative for anti-Chlamydia IgG
[15] = group mean, before treatment 45.9
[16] = individual stable angina patients

CC(=O)Oc1ccccc1C(=O)O [Aspirin, acetylsalicylic acid]
abzyme activity, + aspirin (anti-Chlamydia abzymes [1]; stable angina class I): 5 and 45 and 0 (3×) and 10
abzyme activity, + aspirin (anti-Chlamydia abzymes [1]; stable angina class II): 5 (4×) and 10 (2×) and 0 (4×) and 25 and 22.5 and 3.3 and 16.7 and 30
abzyme activity, + aspirin (anti-Chlamydia abzymes [1]; stable angina class III): 0 (3×) and 45 and 5 and 35 and 15 and 30 and 105 and 20
abzyme activity, + aspirin (anti-Chlamydia abzymes [1]; unstable angina (IV)): 130 and 70 and 0 and 37 and 90 and 100 and 180
individuals positive for abzymes, + aspirin (anti-Chlamydia abzymes [1]; stable angina class I, 1/6): 17%
abzyme activity, + aspirin, group mean (anti-Chlamydia abzymes [1]; stable angina class I, n = 6, without aspirin 30.0): 10.0
individuals positive for abzymes, + aspirin (anti-Chlamydia abzymes [1]; stable angina class II, 4/15): 27%
abzyme activity, + aspirin, group mean (anti-Chlamydia abzymes [1]; stable angina class II, n = 15, without aspirin 32.2): 9.2
individuals positive for abzymes, + aspirin (anti-Chlamydia abzymes [1]; stable angina class III, 6/10): 60%
abzyme activity, + aspirin, group mean (anti-Chlamydia abzymes [1]; stable angina class III, n = 10, without aspirin 56.0): 25.5
individuals positive for abzymes, + aspirin (anti-Chlamydia abzymes [1]; unstable angina (IV), 6/7): 86%
abzyme activity, + aspirin, group mean (anti-Chlamydia abzymes [1]; unstable angina (IV), n = 7, without aspirin 119): 86.7
Level of activity of anti-Chlamydia abzymes, 7 days after starting to take 250 mg of aspirin daily (anti-Chlamydia abzymes [2]; individual patients with CHD, before aspirin 45, 100, 45): undetectably low level and 20 μM MDA/ml and 0 μM MDA/ml
inhibition of the abzyme activity (anti-Chlamydia abzymes [2]; one CHD patient, 250 mg aspirin daily, after a week): 5 fold
Level of activity of anti-Chlamydia abzymes, 7 days after re-starting to take 250 mg aspirin daily (anti-Chlamydia abzymes [2]; [9]): 20 μM MDA/ml
Level of activity of anti-Chlamydia abzymes, after stopping taking aspirin for 7 days (anti-Chlamydia abzymes [2]; [9]): 65 μM MDA/ml
Level of activity of anti-Chlamydia abzymes, aspirin intake 250 mg daily (anti-Chlamydia abzymes [2]; patient F, Silent Myocardial Ischaemia, regular intake): 10 μM MDA/ml
In-vitro Inhibition (anti-Chlamydia abzymes [3]): +
Result (inhibition of anti-Chlamydia abzymes) (anti-Chlamydia abzymes [3]; [10]): Positive
Lipid oxidising activity of anti-Chlamydia abzymes (anti-Chlamydia abzymes [3]; [11]): 6.2 μM MDA/ml
Anti-Chlamydia abzyme activity, 60 days after the start of treatment (anti-Chlamydia abzymes [4]; Therapy Group D individual IHD patients, aspirin 250 mg daily, before 103, 253): 63 μM MDA/ml and 103 μM MDA/ml
Anti-Chlamydia abzyme activity, 60 days after the start of treatment (anti-Chlamydia abzymes [4]; Therapy Group D mean, before treatment 178): 83.2 μM MDA/ml

CC[C@H]1OC(=O)[C@H](C)[C@@H](O[C@H]2C[C@@](C)(OC)[C@@H](O)[C@H](C)O2)[C@H](C)[C@@H](O[C@@H]2O[C@H](C)C[C@H](N(C)C)[C@H]2O)[C@](C)(O)C[C@@H](C)CN(C)[C@H](C)[C@@H](O)[C@]1(C)O [Azithromycin]
treated patients with a reduction of titers of anti-Chlamydia antibodies (anti-Chlamydia IgG [5]): 43%
Anti-Chlamydia IgG, 60 days after treatment (anti-Chlamydia IgG [6]; summary, group value, before treatment 43.6, 48.5, 52.0 (A, C, B), immuno-fluorescent assay): 0 (titers)^−1
presence of anti-Chlamydia IgG after the intensive regimen (anti-Chlamydia IgG [6]; therapy trial): totally eliminated
Lipid oxidising activity of anti-Chlamydia abzymes (anti-Chlamydia abzymes [3]; in DMSO, 1 μM, control 61): 7 μM MDA/ml
Lipid oxidising activity of anti-Chlamydia abzymes (anti-Chlamydia abzymes [3]; in DMSO, 5 μM, control 61): 0 μM MDA/ml
Lipid oxidising activity of anti-Chlamydia abzymes (anti-Chlamydia abzymes [3]; suspension in water, 1 μM, control 61): 19 μM MDA/ml
Lipid oxidising activity of anti-Chlamydia abzymes (anti-Chlamydia abzymes [3]; suspension in water, 2 μM, control 61): 0 μM MDA/ml
Lipid oxidising activity of anti-Chlamydia abzymes (anti-Chlamydia abzymes [3]; suspension in water, 10 μM, control 61): 0 μM MDA/ml
Lipid oxidising activity of anti-Chlamydia abzymes (anti-Chlamydia abzymes [3]; suspension in water, 20 μM, control 61): 0 μM MDA/ml
Anti-Chlamydia abzyme activity, 15 days after the start of treatment (anti-Chlamydia abzymes [4]; [12]): 6.7 μM MDA/ml (3×) and 0 μM MDA/ml (3×) and 60* μM MDA/ml and 8.3 μM MDA/ml and 33 μM MDA/ml and 75* μM MDA/ml and 52* μM MDA/ml
Anti-Chlamydia abzyme activity, 30 days after the start of treatment (anti-Chlamydia abzymes [4]; [12]): 78** μM MDA/ml and 0 μM MDA/ml (3×) and 37* μM MDA/ml and 28** μM MDA/ml and 3.3 μM MDA/ml (2×) and 10 μM MDA/ml (2×) and 78* μM MDA/ml
Anti-Chlamydia abzyme activity, 45 days after the start of treatment (anti-Chlamydia abzymes [4]; [12]): 17 μM MDA/ml and 0 μM MDA/ml (5×) and 20* μM MDA/ml and 43* μM MDA/ml and 3.3 μM MDA/ml (2×) and 5.0 μM MDA/ml
Anti-Chlamydia abzyme activity, 60 days after the start of treatment (anti-Chlamydia abzymes [4]; [12]): 3.3 μM MDA/ml and 6.7 μM MDA/ml (2×) and 0 μM MDA/ml (7×) and 0.5 μM MDA/ml
Anti-Chlamydia abzyme activity, 15 days after the start of treatment (anti-Chlamydia abzymes [4]; [13]): 22.5 μM MDA/ml
Anti-Chlamydia abzyme activity, 30 days after the start of treatment (anti-Chlamydia abzymes [4]; [13]): 22.5 μM MDA/ml
Anti-Chlamydia abzyme activity, 45 days after the start of treatment (anti-Chlamydia abzymes [4]; [13]): 7.4 μM MDA/ml
Anti-Chlamydia abzyme activity, 60 days after the start of treatment (anti-Chlamydia abzymes [4]; [13]): 1.6 μM MDA/ml
patients with no changes in the abzyme activity after 15 days (anti-Chlamydia abzymes [4]; Therapy Group A, 3 out of 11): 27%
Abzyme activity Day 60 (anti-Chlamydia abzymes [4]; [14]): 6.7 (2×) and 3.3 and 0
Anti-Chlamydia abzymes activity, 60 days after treatment (anti-Chlamydia abzymes [4]; summary, group mean, PCG 55.3 ± 6.18, Norm 6.36 ± 1.14): 1.6 ± 0.89 μM/MDA/ml
Score by modified Rose-Blackburn Questionnaire, 60 days after start of the treatment ([7]; group mean): 14.4 ± 1.14
Rose Blackthorn Score Day 60 [7, 14]: 18 and 19 and 10 and 13
Score by modified Rose-Blackburn Questionnaire, 60 days after start of the treatment ([7]; individual patients): 13 and 16 and 18 and 15 (2×) and 8 and 11 and 17 (2×) and 19 and 10
Clinical Status modified Rose G., Blackburn H Questionnaire, 60 days after treatment ([7]; summary, group mean, PCG 21.5 ± 1.19): 14.4 ± 1.14
Anti-Chlamydia abzyme activity, 15 days after the start of the treatment (anti-Chlamydia abzymes [8]; [15]): 19.6 μM MDA/ml
Anti-Chlamydia abzyme activity, 30 days after the start of the treatment (anti-Chlamydia abzymes [8]; [15]): 17.7 μM MDA/ml
Anti-Chlamydia abzyme activity, 15 days after the start of the treatment (anti-Chlamydia abzymes [8]; [16]): 60 μM MDA/ml and 0 μM MDA/ml (3×) and 8.3 μM MDA/ml and 6.7 μM MDA/ml (3×) and 33 μM MDA/ml and 75 μM MDA/ml
Anti-Chlamydia abzyme activity, 30 days after the start of the treatment (anti-Chlamydia abzymes [8]; [16]): 37 μM MDA/ml and 0 μM MDA/ml (3×) and 28 μM MDA/ml and 3.3 μM MDA/ml (2×) and 10 μM MDA/ml and 78 μM MDA/ml
adverse reactions (human, in vivo): No adverse reactions
tablets of nitroglycerine daily after 15 days of treatment (patient 5, before treatment 10 tablets daily): 5 tablets of nitroglycerine

C[S+](C)[O-] [DMSO]
development of lipid oxidation reaction (Chlamydia): completely abrogated
Level of MDA production by 0.82 μg of lesion IgG (lesion IgG): 0 µM

O=C(O)CN(CCN(CC(=O)O)CC(=O)O)CCN(CC(=O)O)CC(=O)O [DTPA]
In-vitro Inhibition (anti-Chlamydia abzymes [3]): −
Result (inhibition of anti-Chlamydia abzymes) (anti-Chlamydia abzymes [3]; [10]): Negative
Lipid oxidising activity of anti-Chlamydia abzymes (anti-Chlamydia abzymes [3]; [11]): 45.2 μM MDA/ml

O=[N+]([O-])OCC(CO[N+](=O)[O-])O[N+](=O)[O-] [Glyceryl Trinitrate]
Anti-Abzyme activity (anti-Chlamydia abzymes [3]; drug 4.4 μM, control 21.7): 0 μM MDA/ml
Anti-Abzyme activity (anti-Chlamydia abzymes [3]; drug 22 μM, control 21.7): 0 μM MDA/ml
Anti-Abzyme activity (anti-Chlamydia abzymes [3]; drug 44 μM, control 21.7): 0 μM MDA/ml
Anti-Abzyme activity (anti-Chlamydia abzymes [3]; drug 220 μM, control 21.7): 0 μM MDA/ml

O=[N+]([O-])O[C@H]1CO[C@H]2[C@@H]1OC[C@H]2O[N+](=O)[O-] [Isosorbide Dinitrate]
Anti-Abzyme activity (anti-Chlamydia abzymes [3]; drug 42 μM, control 21.7): 0 μM MDA/ml
Anti-Abzyme activity (anti-Chlamydia abzymes [3]; drug 211 μM, control 21.7): 0 μM MDA/ml

CCC[C@@H]1C[C@@H](C(=O)N[C@@H]([C@H]2O[C@H](SC)[C@H](O)[C@@H](O)[C@H]2O)[C@@H](C)O)N(C)C1 [Lincomycin Hydrochloride]
Anti-Abzyme activity (anti-Chlamydia abzymes [3]; drug 6.5 μM, control 21.7): 28.5 μM MDA/ml
Anti-Abzyme activity (anti-Chlamydia abzymes [3]; drug 13 μM, control 21.7): 30.3 μM MDA/ml

[N-]=[N+]=[N-].[Na+] [NaN1, sodium azide]
abzyme effect on the plasma clotting after pre-incubation of the abzymes with inhibitor (human plasma): reduction
In-vitro Inhibition (anti-Chlamydia abzymes [3]): +
Lipid oxidising activity of anti-Chlamydia abzymes (anti-Chlamydia abzymes [3]): 0 μM MDA/ml
Result (inhibition of anti-Chlamydia abzymes) (anti-Chlamydia abzymes [3]): Positive

CC(C)(S)[C@@H](N)C(=O)O [Penicillamine]
In-vitro Inhibition (anti-Chlamydia abzymes [3]): +
Result (inhibition of anti-Chlamydia abzymes) (anti-Chlamydia abzymes [3]; [10]): Positive
Lipid oxidising activity of anti-Chlamydia abzymes (anti-Chlamydia abzymes [3]; [11]): 0 μM MDA/ml

O=C(O)c1ccccn1 [Picolinic acid]
In-vitro Inhibition (anti-Chlamydia abzymes [3]): +
Result (inhibition of anti-Chlamydia abzymes) (anti-Chlamydia abzymes [3]; [10]): Positive
Lipid oxidising activity of anti-Chlamydia abzymes (anti-Chlamydia abzymes [3]; [11]): 0 μM MDA/ml

CC(C)NCC(O)COc1cccc2ccccc12 (stereo not shown) [Propranolol Hydrochloride]
Anti-Abzyme activity (anti-Chlamydia abzymes [3]; Hydrochloride): 21.3 μM MDA/ml and 18.3 μM MDA/ml
